This note sets out measurements from patent US20070149509A1, “Use of vitamin e” (priority 2003, published 2007).

For the experiment, the system named is melatonin receptor type 1 gene (MT1). In words: Impact of vitamin E on melatonin receptor expression in rat brain (high-density oligonucleotide microarrays). The format is in vivo. The conditions noted are these: male rats, vitamin E containing diet vs vitamin E deficient diet, monitored over 9 months at 4 time-points, brain/hippocampus.

Experimental: The impact of vitamin E on melatonin receptor expression in rat hippocampus was determined as follows: Two groups of male rats were randomly assigned to either a VE sufficient diet or to a diet deficient in VE for 270 days. High-density oligonucleotide microarrays comprising over 7,000 genes were used to assess the transcriptional response of the brain. Differential gene expression was monitored over a period of 9 months, at 4 different time-points.

Turning to vitamin E, the “melatonin receptor type 1 gene (MT1) expression in the brain” value is “strongly and consistently up-regulated”.
